# Results published in patent US20200345733A1, “Microbicidal Pyrimidine or Triazine Containing Compounds” (Janssen Sciences Ireland UC, priority 2002, published 2020).
# Test: White rabbit vaginal irritation and toxicity study (10 days)
# Type: in vivo
# Settings: female rabbits, 10 days after application; animals with finding
# Description: Gel formulations of the compound B at different concentrations were used to study the exclusion of any irritation in a Rabbit Vaingal Irritation test. 10 days after the application of the gel formulations onto 6 different rabbit groups, vaginal and cervical epithelium were carefully examined by a pathologist macroscopically and histologically. The following scores were determined.
substance,measurement,value
"Nonoxynol-9 [Nonoxynol-9, 4%]","Cervical examination: Epithelial loss and atrophy, Marked",3
same,"Cervical examination: Epithelial loss and atrophy, Slight",1
same,"Cervical examination: Epithelial loss and atrophy, Total",4a
same,"Cervical examination: Luminal Inflammatory cells, Present",4
same,"Cervical examination: Luminal Inflammatory cells, Total",4a
same,"Vaginal examination: Epithelial inflammatory infiltrate, Minimal",3
same,"Vaginal examination: Epithelial inflammatory infiltrate, Slight",2
same,"Vaginal examination: Epithelial inflammatory infiltrate, Total",5a
same,"Vaginal examination: Epithelial loss and atrophy, Marked",2
same,"Vaginal examination: Epithelial loss and atrophy, Severe",3
same,"Vaginal examination: Epithelial loss and atrophy, Total",5b
